Two substances from patent publication US9914914B2, “Polymerase capable of producing non-DNA nucleotide polymers” (Medical Research Council, priority 2012, dated 2018) can be followed below.

In one data set the target is T1, CD30 (Homo sapiens, UniProt P28908).
T1 construct: selections were carried out against the extracellular domains of both CD30 and L1-CAM expressed as N-terminal Fc chimeras
T1 sequence (P28908 19-385 limits assumed): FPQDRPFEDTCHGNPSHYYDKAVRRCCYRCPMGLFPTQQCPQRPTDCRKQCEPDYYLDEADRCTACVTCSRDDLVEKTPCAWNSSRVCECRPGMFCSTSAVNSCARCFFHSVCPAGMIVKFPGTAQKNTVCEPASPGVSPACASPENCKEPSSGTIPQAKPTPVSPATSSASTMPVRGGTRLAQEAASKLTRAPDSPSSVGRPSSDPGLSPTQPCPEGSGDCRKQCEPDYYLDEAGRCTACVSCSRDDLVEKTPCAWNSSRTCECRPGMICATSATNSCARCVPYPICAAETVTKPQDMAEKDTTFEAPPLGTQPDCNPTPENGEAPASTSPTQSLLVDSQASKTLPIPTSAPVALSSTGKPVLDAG
Briefly: Fluorescence polarisation affinity of txNA aptamers. The data set is classed as binding. The procedure: In this example, selections were carried out against the extracellular domains of both CD30 and L1-CAM expressed as N-terminal Fc chimeras. Briefly, for each round libraries were annealed in 1×HBSSTT (Hanks' Balanced Salt Solution with 5 mM each TRIS pH 7.4 and 8.3 and 0.05% Tween-20) for 5 min 85° C. and cooled to 4° C. at 0.1° C./sec, exposed to either protein AG or streptavidin-coated paramagnetic beads (see below), filtered to remove the beads and then added to recombinant protein in 1×HBSST. These mixtures were incubated at room temperature on a rotator to allow aptamers to bind to the recombinant proteins in solution and binders were recovered via protein AG or streptavidin-coated paramagnetic beds. Rounds 1, 2 and 5 were carried out using native protein and Protein AG Magnetic Beads (Pierce). All other rounds were carried out using protein biotinylated with NHS-LC-LC-biotin (Pierce) and recovered from the binding incubation using NanoLink Streptavidin Magnetic beads (SoluLink). The beads were washed in 1×HBSSTT for 2 h-16 h at room temperature using a Thermo KingFisher and aptamers eluted from the proteins bound to the beads using 30 mM NaOH. Negative selections were carried out against free Fc from round 5 onwards. […]
Aptamers selected against a) CD30 and b) L1-CAM were tested in fluorescence polarisation (FP) and affinities calculated as above (and/or Pinheiro et al (2012)). […]
A general note: Polarisation of emitted light reports the rotation of a fluorescent probe.

Data set [1] has as its system sTAR (HIV trans-activating response RNA motif). Put plainly: HNA aptamer affinity by SPR, BLI and ELONA titration. Conditions: read-out: dissociation constant (KD). The data set is classed as binding. The procedure:
ELONA (Aptamer-ELISA) was carried out as described (56) with minor modifications. For screening and characterization, ssRNA-HNA chimeras were prepared as described above (13.) (using fitcRNAfd (Table S5)) and binding assayed by immunodetection of the FITC-tag on the bound aptamer. […] Bound antibody was detected using a colorimetric substrate as described above (see PAA, 5) […]
For anti-TAR aptamers, 1000RU sTAR was captured (or, as a reference flow cell, 1000RU scrambledTAR-1) before blocking with excess free biotin. Anti-TAR aptamers were injected for 150 s at a series of concentrations (125 nM, 62.5 nM, 31.3 nM, 15.6 nM, 7.8 nM and 3.9 nM) and dissociation monitored for 600 s, in buffer R (20 mM NaOAc, 140 mM KOAc, 3 mM Mg(OAc)2, 0.1% (v/v) Tween20). […]
To obtain optimal fits, SPR data was fitted to double-exponential model using KaleidaGraph (Synergy Software, Pennsylvania, USA) and Prism (GraphPad Software Inc., California, USA) (57). The rate constants of dissociation were measured by fitting dissociation data at time t (Rdissoc) using a double-exponential function: Rdissoc=Rolexp^−(k^off1^t)+Ro2exp^−(k^off2^t)+RI (1) where koff is the dissociation rate constant, Ro is maximum change in resonance for each phase, RI is the bulk resonance change. […]

pKd: −log10 of the molar value. [HNA-N] = hexitol nucleic acid (N: the base)

Take “CD30_13: txNA aptamer selected against CD30, SEQ ID NO:20 (TAGATGTGGTAGAAGTCGTCATTTGGCGAGAAAGCTCAGTCTCAGG; XNA aptamer, chemistry of this clone not given here)”: the “binding to CD30” value with CD30 is “bind CD30 tightly and with good affinity”.

Take “T5-S8-7: anti-TAR HNA aptamer, SEQ ID NO:16 (AGGTAGTGCTGTTCGTTCATCTCAAATCTAGTTCGCTATCCAGTTGGC; all [HNA-N], backbone and methylation of C not given here)”: the pKd (in general, the Kd on a negative log10 scale, so that one unit is a factor of ten) in data set [1] is 7.17 to 7.55.
